Experimental data reported in patent US9682060B2, “Small molecules that induce intrinsic pathway apoptosis” (The Board of Trustees of the University of Illinois, priority 2015, dated 2017).
Entries after “also recorded” stand apart in the source; their conditions may differ.

Key:
[1] = test system: adherent cell lines (HOS, H1993, SK-MEL-5, MIA PaCa-2); test: Adherent cell lines: cell death by AV/PI staining and immunoblots; format: cell-based, Human; settings: HOS, H1993, SK-MEL-5, MIA PaCa-2, 10 μM
HL-60 cells = test: High-throughput cell death screen (MTS); format: cell-based, human; settings: 1 μM, 24 hours
Procedure: High-Throughput Cell Death Screen.
HL-60 cells were plated into 384 well plates (50 μL of 2×10^6 cells/mL per well) in RPMI cell culture media. Library compounds were transferred using a 384-pin transfer apparatus (V & P Scientific, San Diego) which transferred 0.1 μL from 10 mM DMSO stock solutions to achieve a final concentration of 20 μM. Controls containing DMSO only and 10 μM etoposide were used to serve as live and dead controls respectively. The cells were incubated for 24 hours.

U-937 cells [2] = test: Cytochrome c release by immunoblot and flow cytometry; format: cell-based, Human; settings: 10 μM
Procedure: (§1) Cytochrome c Release by Immunoblot.
(§2) U-937 cells (3×10^6 cells in 2 mL RPMI) or SKW 6.4 cells (5×10^6 cells in 2 mL RPMI) were treated with 10 μM Raptinal for 10, 20, 30, 45 or 60 minutes in a 12-well plate. Cells were centrifuged (1000×g. 2 min), washed with ice-cold PBS and resuspended in cold 200 μL digitonin permeabilization buffer (75 mM NaCl, 1 mM Sodium phosphate monobasic, 8 mM sodium phosphate dibasic, 250 mM sucrose, 190 μg/mL digitonin, protease cocktail inhibitor, pH 7.5) and placed on ice for 5 min. Cell permeability (>95%) was confirmed by trypan blue. The permeabilized cells were centrifuged (14000×g, 5 min) and 150 μL of supernatant (cytosolic fraction) was saved. The pellet (mitochondrial fraction) was washed in 200 μL digitonin permeabilization buffer and lysed in 25 μL RIPA lysis buffer. […]
(§3) Suspension cells (2.5×10^6 SKW 6.4 cells or 1.5×10^6 U-937 cells in 1 mL RPMI) were treated with 10 μM Raptinal in a 24 well plate for 10, 20, 30, 45 and 60 min. The cells were centrifuged (1000×g, 2 min), washed with cold PBS and resuspended in cold permeabilization buffer (PBS containing 50 μg/mL digitonin and 100 mM KCl) and placed on ice for 5 min after which >95% of cells were permeabilized as determined by trypan blue. […] The cells were pelleted and washed with PBS (3 mL) and resuspended in PBS (1 mL) and analyzed by flow cytometry. […]

SKW 6.4 cells = test: as above; format: cell-based, Human; settings: 10 μM
Procedure: as §1, §2, §3

U-937 = test: Raptinal toxicity, 24 hour IC50 (MTS assay for suspension cells); format: cell-based; settings: U-937 (Human Lymphoma); 24 hour incubation; mean ± SD
Procedure: MTS Assay for Suspension Cells.
Serial dilutions of compound in 100% DMSO were added in triplicate (2 μL to each well) to empty wells of a 96-well plate. Suspension cells (HL-60, U-937, SKW 6.4, Jurkat W T, Jurkat CASP8^−/−, Jurkat FADD^−/−, Jurkat Bcl-2) cells in RPMI 1640 media were added to 96-well plates (198 μL containing 4×10^4 cells) and the cells incubated for 24 hours.

U-937 cells [3] = test: Cell morphology by light, scanning electron and transmission electron microscopy; format: cell-based, Human; settings: 10 μM
Procedure: Cell Morphology by Light Microscopy.
Phase contrast images of U-937 cells treated with 10 μM Raptinal were taken with an Olympus DP-21 microscope digital camera. The cells were kept warm between images by returning the plate to the 37° C. incubator.
Scanning Electron Microscopy.
U-937 cells (4×10^6 cells in 8 mL 0.45 micron-filtered cell culture media) were treated with 1% DMSO) or 10 μM Raptinal in 10 cm culture dishes for 60 minutes. The cells were centrifuged (250×g, 5 min) and the media aspirated. Ice-cold Karnovsky's fixative (1 mL of 0.45 micron filtered) was added to the cell pellet which was resuspended by gently agitation. The cells were fixed overnight at 4° C. and submitted for scanning electron microscopy (SEM) sample processing. The cells were stained with OsO4, placed on filter paper and dehydrated. After mounting, the cells were coated with Pd/Au and scanning electron microscopy was performed.
Transmission Electron Microscopy.
U-937 cells (4 mL of 5×10^5 cells/ml) were treated with DMSO or 10 μM of Raptinal for 5, 30, and 60 minutes. The cells were centrifuged 400×g for 5 min and the media aspirated. The cells were fixed by the addition of Karnovsky's fixing solution (0.5 mL) and placed in a 4° C. fridge overnight. The next day, the cells were microwave fixed, stained with 2% OsO4, washed with 3% KCN and enbloc stained with uranyl acetate. The samples were dehydrated with acetonitrile and ethanol, suspended in pure epoxy, and embedded overnight at 85° C. The embedded samples were cut into thick and then thin sections and these were mounted and viewed.

U-937 cells [4] = test: Mitochondrial permeability transition pore (MPTP) calcein-cobalt assay; format: cell-based, Human; settings: calcein-cobalt quenching
Procedure: Mitochondrial Permeability Transition Pore (MPTP) Calcein-Cobalt Assay.
U-937 cells (1×10^6 cells/mL in HBSS) were loaded with calcein-AM (20 nM final concentration) for 45 minutes at 37° C. The cells were washed with HBSS and resuspended in RPMI and plated into a 24-well plate (1×10^6 cells in 1 mL). The cells were treated with Raptinal (10 μM) for 15, 30, 45, 60 and 90 minutes. Cobalt(II) chloride was added (10 μL of 80 mM stock in HBSS) to the cells 10 minutes prior to the end of the time points. The cells were pelleted and resuspended in HBSS (0.5 mL) and calcein fluorescence was measured by flow cytometry. As a positive control for MPTP, ionomycin and calcium were added to calcein-labeled cells in HBSS 10 minutes prior to analysis by flow cytometry.

In the case of `O=CC1(C2(C=O)c3ccccc3-c3ccccc32)c2ccccc2-c2ccccc21` [Raptinal, [9,9′]bifluorenyl-9,9′-dicarbaldehyde], the “speed of cell death induction versus 1541B and staurosporine” value ([1]; AV/PI) is reported as “substantially faster than the other agents”, the “procaspase-3 activation and PARP-1 cleavage within 2 hours” value ([1]; immunoblots) is reported as “the only agent capable of activating procaspase-3 and inducing subsequent PARP-1 cleavage within 2 hours” and the “cell death in retest of screen hits” value (HL-60 cells) is reported as “quantitative cell death”. For the same molecule, the “time of earliest / partial cytochrome c release” value (U-937 cells [2]) was 10 min, the “time of earliest / partial cytochrome c release” value (SKW 6.4 cells) was 10 min and the IC50 (U-937) was 700 ± 300 nM. For the same molecule, the “mitochondrial morphology (transmission electron microscopy)” value (U-937 cells [3]; after 5 minutes) was “substantial mitochondrial swelling”, the blebbing (U-937 cells [3]; at 30 min) was “modest” and the blebbing (U-937 cells [3]; at 60 min) was “extensive”. The “mitochondrial permeability transition pore (MPTP) formation” value (U-937 cells [4]) was “does not induce; also recorded: did not undergo mitochondrial-permeability-transition-pore (MPTP) formation”.
